Columns and labels:
HCT116 = assay: MTS cell proliferation test, HCT116; settings: Homo sapiens, HCT-116, 72 h, read-out: HCT116 IC50 (Mean ± SD);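 further: absorbance at 490 nm after MTS/PMS addition, survival relative to untreated cells (100%) after blank subtraction, IC50 from the concentration–survival curve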
Procedure: (§1) The disclosed compounds and their pharmaceutically accepted salts are assayed for their anti-cancer activities by the following method. • MTS Cell Proliferation Test 1. Materials 1.1. […] Cell Lines
(§2) Two cell lines were used, both HCT116 and MDA-MB-231 were purchased from USATCC.
(§3) MTS reagent powder was purchased from Promega. Cat #G1111; PMS from Sigma, Cat #P8625; cell culture medium RPMI-1640, Cat #10040562R; DMEM, Cat #0013CVR; 100× sodium pyruvate solution Cat #136007; 100× Penicillin Streptomycin Solution, Cat ⊇15140122; 100× Penicillin Streptomycin Solution, Cat #15140122; 0.25% Trypsin (Parenzyme), Cat #25200-072; and fetal bovine serum, Cat #16000-044 were all purchased from Life Technologies.
(§4) • Thermo incubator (Format 371); • Heat force Biosafety Cabinet (HF sage 1500); • BioTek Microplate Reader (Synergy 2). 2. […] 2.3 Procedure of MTS Methods:
(§5) Cells at logarithmic phase were harvested, then digested with 0.25% trypsin, and re-suspense in complete growth medium. 150 uL/well of HCT-116 and MDA-MB-231 were dispensed into 96 well culture plates with 2.5×10^3 cell/well. The plates were pre-incubated in a humidified CO2 incubator at 37° C., 5% CO2) for 24 hours. 50 uL of various concentration of test compounds and reference compound were added. A negative control (only cells and culture medium without compound) and blank control (only culture medium without cells) were set at the same time. The plates were incubated for 72 hr in the incubator. The MTS/PMS solution was prepared and added into 96 well plates according to the test instruction by Promega Corporation. The plates were incubated again for some time, then the absorbance at 490 nm were measured using Biotek Instruments, Inc microplate reader and the cell survival rates calculated. Cell Survival Rate(%)=(At−Ab)/(Ac−Ab)×100% where, • At=Absorbance value of test compound • Ab=Absorbance value of blank • Ac=Absorbance value of control 3. Results

MDA-MB-231 = assay: MTS cell proliferation test, MDA-MB-231; settings: Homo sapiens, MDA-MB-231, 72 h, read-out: MDA231 IC50 (Mean ± SD);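 further: cells settled 24 h before compound addition, MTS absorbance at 490 nm, survival as percent of untreated cells after blank subtraction, IC50 fitted from survival versus concentration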
Procedure: as §1, §2, §3, §4, §5

SMILES	IC50 (HCT116)	IC50 (MDA-MB-231)
O=C1C2=C(CCN(Cc3ccccc3)C2)N2CCN=C2N1Cc1cccc(Cl)c1 [Compound I-1, 7-Benzyl-4-(3-chlorobenzyl)-1,2,6,7,8,9-hexahydroimidazo[1,2-a]pyrido[3,4-e]pyrimidin-5(4H)-one]	230 ± 9 nM	240 nM
Cc1cccc(CN2C(=O)C3=C(CCN(Cc4ccccc4)C3)N3CCN=C23)c1 [Compound I-2, 7-benzyl-4-(3-methylbenzyl)-1,2,6,7,8,9-hexahydroimidazo[1,2-a]pyrido[3,4-e]pyrimidin-5(4H)-one]	230 ± 4 nM	240 nM
O=C1C2=C(CCN(Cc3ccccc3)C2)N2CCN=C2N1Cc1ccc(Cl)cc1 [Compound I-3, 7-benzyl-4-(4-chlorobenzyl)-1,2,6,7,8,9-hexahydroimidazo[1,2-a]pyrido[3,4-e]pyrimidin-5(4H)-one]	60 ± 6 nM	70 ± 3 nM
O=C1C2=C(CCN(Cc3ccccc3)C2)N2CCN=C2N1Cc1ccccc1C(F)(F)F [Compound I-4, 7-benzyl-4-(2-(trifluoromethyl)benzyl)-1,2,6,7,8,9-hexahydroimidazo[1,2-a]pyrido[3,4-e]pyrimidin-5(4H)-one]	1360 ± 23 nM	1170 ± 178 nM
O=C1C2=C(CCN(Cc3ccccc3)C2)N2CCN=C2N1Cc1ccccc1Br [Compound I-5, 7-benzyl-4-(2-bromobenzyl)-1,2,6,7,8,9-hexahydroimidazo[1,2-a]pyrido[3,4-e]pyrimidin-5(4H)-one]	5960 ± 1350 nM	6810 ± 57 nM
Cc1ccccc1CN1C(=O)C2=C(CCN(Cc3ccc(C(F)(F)F)cc3)C2)N2CCN=C12 [Compound I-6, 4-(2-methylbenzyl)-7-(4-(trifluoromethyl)benzyl)-1,2,6,7,8,9-hexahydroimidazo[1,2-a]pyrido[3,4-e]pyrimidin-5(4H)-one]	4160 ± 1510 nM	4450 ± 356 nM
COc1ccc(CN2CCC3=C(C2)C(=O)N(Cc2ccccc2C)C2=NCCN23)cc1 [Compound I-7, 7-(4-methoxybenzyl)-4-(2-methylbenzyl)-1,2,6,7,8,9-hexahydroimidazo[1,2-a]pyrido[3,4-e]pyrimidin-5(4H)-one]	2090 ± 92 nM	1880 ± 78 nM
Cc1ccccc1CN1C(=O)C2=C(CCN(Cc3ccc(N4CCOCC4)cc3)C2)N2CCN=C12 [Compound I-8, 4-(2-methylbenzyl)-7-(4-morpholinobenzyl)-1,2,6,7,8,9-hexahydroimidazo[1,2-a]pyrido[3,4-e]pyrimidin-5(4H)-one]	1770 ± 230 nM	1820 ± 241 nM
Cc1ccccc1CN1C(=O)C2=C(CCN(Cc3cccc(C(F)(F)F)c3)C2)N2CCN=C12 [Compound I-9, 4-(2-methylbenzyl)-7-(3-(trifluoromethyl)benzyl)-1,2,6,7,8,9-hexahydroimidazo[1,2-a]pyrido[3,4-e]pyrimidin-5(4H)-one]	710 ± 1 nM	740 nM
Cc1ccccc1CN1C(=O)C2=C(CCN(Cc3ccc(N4CCN(C)CC4)cc3)C2)N2CCN=C12 [Compound I-10, 4-(2-methylbenzyl)-7-(4-(4-methylpiperazin-1-yl)benzyl)-1,2,6,7,8,9-hexahydroimidazo[1,2-a]pyrido[3,4-e]pyrimidin-5(4H)-one]	2090 ± 16 nM	2190 ± 27 nM
O=C1C2=C(CCN(Cc3ccccc3F)C2)N2CCN=C2N1Cc1ccccc1F [Compound I-11, 4,7-bis(2-fluorobenzyl)-1,2,6,7,8,9-hexahydroimidazo[1,2-a]pyrido[3,4-e]pyrimidin-5(4H)-one]	1990 ± 41 nM	2180 ± 20 nM
O=C1C2=C(CCN(Cc3ccccc3F)C2)N2CCN=C2N1Cc1ccccc1C(F)(F)F [Compound I-12, 7-(2-fluorobenzyl)-4-(2-(trifluoromethyl)benzyl)-1,2,6,7,8,9-hexahydroimidazo[1,2-a]pyrido[3,4-e]pyrimidin-5(4H)-one]	2040 ± 29 nM	2070 ± 1 nM
O=C1C2=C(CCN(Cc3ccccc3F)C2)N2CCN=C2N1Cc1ccccc1Cl [Compound I-13, 4-(2-chlorobenzyl)-7-(2-fluorobenzyl)-1,2,6,7,8,9-hexahydroimidazo[1,2-a]pyrido[3,4-e]pyrimidin-5(4H)-one]	1770 ± 72 nM	1940 ± 277 nM
O=C1C2=C(CCN(Cc3ccccc3F)C2)N2CCN=C2N1Cc1ccccc1Br [Compound I-14, 4-(2-bromobenzyl)-7-(2-fluorobenzyl)-1,2,6,7,8,9-hexahydroimidazo[1,2-a]pyrido[3,4-e]pyrimidin-5(4H)-one]	1450 ± 155 nM	2080 ± 24 nM
Cc1ccccc1CN1C(=O)C2=C(CCN(Cc3ccccc3F)C2)N2CCN=C12 [Compound I-15, 7-(2-fluorobenzyl)-4-(2-methylbenzyl)-1,2,6,7,8,9-hexahydroimidazo[1,2-a]pyrido[3,4-e]pyrimidin-5(4H)-one]	680 ± 3 nM	730 ± 4 nM
O=C1C2=C(CCN(Cc3ccccc3Br)C2)N2CCN=C2N1Cc1ccccc1F [Compound I-16, 7-(2-bromobenzyl)-4-(2-fluorobenzyl)-1,2,6,7,8,9-hexahydroimidazo[1,2-a]pyrido[3,4-e]pyrimidin-5(4H)-one]	2160 ± 13 nM	3070 ± 752 nM
O=C1C2=C(CCN(Cc3ccccc3Br)C2)N2CCN=C2N1Cc1ccccc1C(F)(F)F [Compound I-17, 7-(2-bromobenzyl)-4-(2-(trifluoromethyl)benzyl)-1,2,6,7,8,9-hexahydroimidazo[1,2-a]pyrido[3,4-e]pyrimidin-5(4H)-one]	2020 ± 22 nM	2140 ± 31 nM
O=C1C2=C(CCN(Cc3ccccc3Br)C2)N2CCN=C2N1Cc1ccccc1Cl [Compound I-18, 7-(2-bromobenzyl)-4-(2-chlorobenzyl)-1,2,6,7,8,9-hexahydroimidazo[1,2-a]pyrido[3,4-e]pyrimidin-5(4H)-one]	2150 ± 22 nM	
O=C1C2=C(CCN(Cc3ccccc3Br)C2)N2CCN=C2N1Cc1ccccc1Br [Compound I-19, 4,7-bis(2-bromobenzyl)-1,2,6,7,8,9-hexahydroimidazo[1,2-a]pyrido[3,4-e]pyrimidin-5(4H)-one]	2220 ± 7 nM	3670 ± 36 nM
Cc1ccccc1CN1C(=O)C2=C(CCN(Cc3ccccc3Br)C2)N2CCN=C12 [Compound I-20, 7-(2-bromobenzyl)-4-(2-methylbenzyl)-1,2,6,7,8,9-hexahydroimidazo[1,2-a]pyrido[3,4-e]pyrimidin-5(4H)-one]	27500 ± 3350 nM	27100 ± 3240 nM
Cc1ccccc1CN1CCC2=C(C1)C(=O)N(Cc1ccccc1F)C1=NCCN12 [Compound I-21, 4-(2-fluorobenzyl)-7-(2-methylbenzyl)-1,2,6,7,8,9-hexahydroimidazo[1,2-a]pyrido[3,4-e]pyrimidin-5(4H)-one]	2120 ± 39 nM	2150 ± 34 nM
Cc1ccccc1CN1CCC2=C(C1)C(=O)N(Cc1ccccc1C(F)(F)F)C1=NCCN12 [Compound I-22, 7-(2-methylbenzyl)-4-(2-(trifluoromethyl)benzyl)-1,2,6,7,8,9-hexahydroimidazo[1,2-a]pyrido[3,4-e]pyrimidin-5(4H)-one]	2030 ± 9 nM	2130 ± 8 nM
O=C1C2=C(CCN(Cc3ccccc3Cl)C2)N2CCN=C2N1Cc1ccccc1F [Compound I-23, 7-(2-chlorobenzyl)-4-(2-fluorobenzyl)-1,2,6,7,8,9-hexahydroimidazo[1,2-a]pyrido[3,4-e]pyrimidin-5(4H)-one]	2000 ± 26 nM	2140 ± 25 nM

Source: US10526332B2, “Imidazo-pyrimidone compounds, and preparation method and application thereof” (Nanjing Gator Meditech Company, Ltd., priority 2015, dated 2020)
